# Laboratory results reported in patent US9186390B2, “Methods and uses of TIE2 binding and/or activating agents” (Sunnybrook Health Sciences Center, priority 2010, dated 2015).
# Entries after “also recorded” stand apart in the source; their conditions may differ.
# Key:
# [1] = tested on: chronic asthma mice; experiment: Chronic asthma model (ovalbumin sensitization, nebulized challenge, d42 / d62); type: in vivo, Balb/c mice
# Method: (§1) (Chronic asthma model) Seven week old female Balb/c mice were injected intraperitoneally (IP) with 20 μg of chicken ovalbumin (OVA) absorbed with 1 mg aluminum hydroxide, an adjuvant known to promote the development of a Th2 response by the immune system, on day 0 (denoted by first day injection) and day 7. Full body inhaled exposure to OVA was initiated at day 21. Briefly, these treatments utilized an InExpose full body aerosol chamber (Scireq, Montreal, Canada) where a 1% OVA solution, suspended in PBS, pH 7.45, was nebulized at 0.2 mL/min with a filtered room air flow rate of 2400 mL/min for a total period of 30 minutes, 3 times a week for either 42 (FIG. 13A) or 62 days (FIG. 13B). (Acute asthma model) Seven week old female Balb/c mice were injected intraperitoneally with 50 μg of chicken OVA absorbed with 1 mg aluminum hydroxide on day 0 (denoted by first day injection) and day 7. Aqueous OVA ([…] in PBS) was delivered intranasally daily from day 20 to day 24 (FIG. 2), Vasculotide or saline vehicle (control, PBS) was delivered to the mice via IP injections.
# (§2) Blood was collected from the left ventricle of anaesthetized mice into heparinized 1 cc syringes. Following collection, blood was placed into Li-heparin microtubes. Subsequently, the tubes were centrifuged at 3000 RPM for 15 minutes at 4° C. Plasma was collected from the top of the samples and frozen at −80° C. for later analysis. The remaining buffy coat and red blood cells were lysed then fixed in 1× lyse/fix buffer (BD Biosciences, Mississauga, Canada) according to manufacturer's instructions.
# (§3) Twenty-four hours after last aerosol exposure and immediately following exsanguinations, tissue was dissected from neck to expose trachea. A small lateral incision was made in the trachea to allow passage of 23 gauge lavage catheter into trachea. The catheter, attached to a 3 cc syringe containing warmed Hanks buffer, was carefully passed into the lumen of the trachea. A suture was secured around the trachea with a knot to secure the catheter in place. Buffer (1 cc) was injected slowly into the lungs and fully aspirated three times. The volume of recovered buffer was recorded for each animal to facilitate calculation of BAL infiltrate.
# (§4) Analysis of plasma samples generated for the asthma study was the same as that outlined for the atopic dermatitis study with one small modification. Plasma from mice used in the asthma study was diluted 1:4 instead of 1:8 for the atopic dermatitis samples.
# (§5) (BAL analysis) Collected BAL fluid was centrifuged at 1000 RPM for 10 minutes at 4° C. BAL fluid was removed and collected for subsequent CBA analysis. The BAL cell pellet was lysed/fixed in 1× lyse/fix buffer according to manufacturer's instructions (BD Biosciences, Mississauga, Canada). The total number of cells contained in each sample was determined by flow cytometry using flow-set beads (Count Bright Beads, Invitrogen), to facilitate sample volume and cell count calculations. A total of 7000 beads were counted for each sample. Flow cytometry analysis was gated on FSC/SSC to eliminate debris and dead cells. Differential cell count analysis was also performed by FACS where surface marker antibodies were used as follows: eosinophils (SSC^hi FITCmed Ige^med), neutrophils (SSC^med FITC^hi Ige^med), monocytes (SSC^med CD11b^+ CD115^+) and lymphocytes (SSC^lo and CD4^+ or CD8^+). In addition to monocyte markers (SSC^med CD11b^+ CD115^+), these cell populations were further characterized using antibodies specific for Tie2, TLR4, and Ly6C. Ly6C^low and Ly6C^high further define monocytes as classical, resident monocytes or inflammatory monocytes, respectively. Identified neutrophils were further labelled with antibodies to Tie2 and TLR4. All cell suspensions were incubated with purified anti-CD16/CD32 mAb (BD Biosciences, Mississauga, ON, Canada) to block non-specific background caused by Fc receptors, followed by incubation with the specific antibodies. […]
# [2] = tested on: acute asthma mice; experiment: Acute asthma model (ovalbumin sensitization, intranasal challenge); type: in vivo, Balb/c mice
# Method: as §1, §2, §3, §4, §5
# [3] = Vasculotide-specific ELISA of circulating Vasculotide in mouse plasma; type: in vivo, CD1 mice; settings: for circulating level in plasma after oral delivery: 2 μg P.O. (gavage)
# Text: Several monoclonal antibodies have been raised against the modified T7 peptide. These antibodies have been extensively validated and used to develop an ELISA which is capable of measuring picogram quantities of Vasculotide in mouse plasma or serum. There is an excellent linear relationship between ELISA signal and Vasculotide concentration with little interference from mouse plasma/serum proteins (FIG. 1C).
# The developed ELISA was used to track circulating levels of Vasculotide in the plasma of mice over time. […] The incongruence of these findings is likely due to a paucity of sensitivity in the ELISA-based detection of Vasculotide.
# [4] = chronic asthma, sustained effect
substance,measurement,setting,value
"Vasculotide: Modified T7 peptide (CHHHRHSF, SEQ ID NO:2) conjugated to 10 kDa tetrameric polyethylene glycol-maleimide; Tie2 binding peptide mimetic",Tie2 levels in BAL neutrophils,"[1]; asthmatic mice, flow cytometry",unchanged
same,BAL neutrophil count,"[1]; chronic asthma, d42",unchanged
same,BAL eosinophil numbers,"[1]; chronic asthma, d42 and d62",significantly decreased; also recorded: statistical reduction
same,BAL monocyte infiltration / absolute number of monocytes,"[1]; chronic asthma, d42 and d62",significantly decreased; also recorded: statistical reduction
same,inflammatory monocytes (Ly6C+) in BAL,"[1]; chronic asthma, d42 and d62",decreased
same,absolute number of peripheral blood mononuclear cells,"[1]; chronic asthma, d42 or d62, did not reach significance",clear trend toward a reduction
same,BAL neutrophil count,"[1]; chronic asthma, d62",slight increase
same,BAL neutrophil count,"[1]; chronic asthma, d62, listed as Vsaculotide",very small increase
same,BAL lymphocytes,"[1]; chronic asthma, day 42 and day 62",statistical reduction
same,plasma IL-5 (cytometric bead array),[1]; [4],decreasing
same,plasma RANTES (cytometric bead array),[1]; [4],decreasing
same,plasma TNF (cytometric bead array),[1]; [4],decreasing
same,reduction of total absolute BAL counts,"[1]; d42 chronic asthma model, systemic (IP) treatment, flow cytometry",45%
same,TLR4 expression on BAL eosinophils (mean fluorescence intensity),"[1]; d42 chronic asthma, PBS 166",758 MFI
same,cell surface level of Tie2 on BAL eosinophils (mean fluorescence intensity),"[1]; d42 chronic asthma, PBS 566",205 MFI
same,"decrease in lung collagen deposition (Masson's trichrome, % blue positive area)","[1]; d62 chronic asthma, vs PBS",4 fold
same,TLR4 expression on BAL eosinophils (mean fluorescence intensity),"[1]; d62 chronic asthma, PBS 118",132 MFI
same,classical monocytes (Ly6C−) in BAL,"[2]; acute asthma, d24",increased
same,number of peripheral blood mononuclear cells,"[2]; acute asthma, d24",prevented a significant increase
same,plasma IL-4 (cytometric bead array),"[2]; acute asthma, d24",decreased
same,plasma IL-5 (cytometric bead array),"[2]; acute asthma, d24",decreased
same,plasma IL-13 (cytometric bead array),"[2]; acute asthma, d24",decreased
same,plasma MCP-1 (cytometric bead array),"[2]; acute asthma, d24",decreased
same,plasma MIP1α (cytometric bead array),"[2]; acute asthma, d24",decreased
same,plasma MIP1β (cytometric bead array),"[2]; acute asthma, d24",decreased
same,plasma RANTES (cytometric bead array),"[2]; acute asthma, d24",decreased
same,plasma TNF (cytometric bead array),"[2]; acute asthma, d24",decreased
same,inflammatory monocytes (Ly6C+) in BAL,"[2]; acute asthma, d24, vs PBS asthmatic controls",significantly fewer; also recorded: decreased
same,BAL eosinophil absolute counts,"[2]; acute asthma, day 24",reduced; also recorded: statistical reduction
same,BAL number of lymphocytes,"[2]; acute asthma, day 24",did not affect; also recorded: non-statistical trend towards decreased
same,BAL number of monocytes,"[2]; acute asthma, day 24",did not affect
same,BAL number of neutrophils,"[2]; acute asthma, day 24",did not affect; also recorded: non-statistical trend towards decreased
same,reduction of total absolute BAL counts,"[2]; acute asthma, systemic (IP) treatment, flow cytometry",25%
same,BAL cell numbers in the absence of asthma,[2]; non-asthmatic mice,no effect
same,time up to which significant levels of circulating Vasculotide are detected by ELISA,"[3]; 2 μg I.P., p=0.0149 PBS vs Vasc",up to 24 hours
same,circulating level in plasma after oral delivery,[3],no significant levels
same,circulating level in plasma after oral delivery,[3]; listed as Vasc-PEG,did not result in any detectable levels
same,circulating level in plasma at 24 hours post injection,"[3]; I.P., unpaired student t-test vs PBS",statistically detectable level
